Test results taken from patent US7396645B1, “Cholestasis signature” (priority 2002, dated 2008).
Read-outs that look alike come from different tables or passages of the source. Marks after values point to notes of the source that are not given here.

Columns and labels:
male Sprague-Dawley rats = settings: rat
Text: Compound dosing was based on the acute dose LD50s recorded in published reference or literature sources. […] The MTD (maximum tolerated dose) was then selected as the dose at which the animals […] 5-10% body weight during the 5-day range finding study. […] In addition, the clinical observations must show no or mild clinical signs during the whole of the range-finding study. At the next highest dose, signs and symptoms of adverse effects and exceeding those of the MTD should be seen to occur. Should these criteria not be met, the range-finding study is repeated using a modified dose range.
(§1) After determination of the MTD and FED for a compound, each compound was dissolved in a vehicle for administration on day 1 of the study (additional daily doses were stored as frozen aliquots from this initial formulation). Each compound was administered to three individual male Sprague-Dawley rats for each of the two doses (MTD and FED) for one of four different times (0.25 day, 1 day, 3 days, and 5 days), yielding a total of up to 24 animals per compound study. Vehicle choice was based on solubility of the compound, effect of food on adsorption, and the vehicles used in the literature reports examined during the FED selection investigations, described above. Generally, the route and vehicle in which the FED was defined are used. When there was a choice of routes and vehicles, oral routes were chosen over injection routes. Many compounds, especially oncolytics, are only administerable intravenously. In such cases, the compound was administered as an intravenous formulation into the tail vein. Orally administered compounds were given dissolved in either water, 1% carboxymethycellulose (CMC) or corn oil. Intravenously and intraperitoneally administered compounds were given in 0.9% saline. Subcutaneously administered compounds were given in corn oil. Animal body weights were determined at 1 day and, where appropriate, at 4 days, before necropsy, and clinical observations were made on a daily basis. Control animals were dosed with vehicle only. Three male animals were used for each dose and time combination used for the compound treatment.
(§2) Tissue Harvest and Handling: After the allocated treatment time, the tissues from the animals were harvested. […] All the tissues collected were divided to provide samples for histopathological analyses, and the remainder of each tissue was then snap-frozen. […] The parameters were measured using a Hitachi-911 clinical chemistry analysis instrument according to the manufacturer's instructions. The following blood constituents were measured: Blood Urea Nitrogen (BUN), Creatinine (CRE), Glucose (GLU), Alanine Transaminase (ALT), Aspartate Aminotrans-ferase (AST), Alkaline Phosphatase (ALP), Total Bilirubin (TBI), Sodium (SOD), Potassium (POT), Chloride (CHL), Phosphorus (PHO), Total Protein (TPR), Albumin (ALB), Cholesterol (CHO), Creatine Phosphokinase (CPK), Lactate Dehydrogenase (LDH), Carbon Dioxide (CO2), Uric Acid (UA), and Lipase. […] The parameters were measured using a Baker 9000 blood cell analysis instrument according to the manufactures instructions. The following blood constituents were measured: Leukocyte count (WBC), Differential Leukocyte counts, Erythrocyte count (RBC), Hemoglobin concentration (HGB), Hematocrit (HCT), Mean Corpuscular Volume (MCV), Mean Corpuscular Hemoglobin (MCH), Mean Corpuscular Hemoglobin Concentration (MCC), Thrombocyte Count (PLC). Histopathology: Histopathological analyses of hematoxylin and eosin-stained tissue sections were performed and peer-reviewed by board-certified (Diplomate, American College of Veterinary Pathologists) veterinary pathologists.

Cholestasis Signature = test system: Cholestasis Signature
Description: as §1
as §2, with “pathologists. Preparation of Enriched mRNA: Punch Biopsies were Taken from the Frozen Tissues and were completely homogenized before being processed using the MagNA Pure robot. (Roche Diagnostics Corp., Indianapolis, Ind.) in combination with the MagNA Pure LC RNA Isolation kit II (Roche Diagnostics Corp). The amount of lysis buffer was adjusted to allow 1 ml per 50 mg for liver tissue, or 1 ml per 80 mg for all other tissues. After complete homogenization and before loading of the samples into the 32-well MagNA Pure plate, the samples were syringed 5-6 times using a 20-gauge 3-ml syringe to ensure a smooth solution for robotic processing. Tissue sample processing was performed in duplicate wells (loading 150 μl of homogenized sample and 150 μl of additional lysis buffer to each well) of the MagNA Pure LC, which is programmed to extract mRNA using oligo-dT selection technology into a final elution volume of 100 μl.” for “pathologists.”

livers of rats = settings: for bile duct hyperplasia: in most animals
Description: as §1
as §2, with “pathologists. Preparation of Enriched mRNA: Punch Biopsies were Taken from the Frozen Tissues and were completely homogenized before being processed using the MagNA Pure robot. (Roche Diagnostics Corp., Indianapolis, Ind.) in combination with the MagNA Pure LC RNA Isolation kit II (Roche Diagnostics Corp). The amount of lysis buffer was adjusted to allow 1 ml per 50 mg for liver tissue, or 1 ml per 80 mg for all other tissues. After complete homogenization and before loading of the samples into the 32-well MagNA Pure plate, the samples were syringed 5-6 times using a 20-gauge 3-ml syringe to ensure a smooth solution for robotic processing. Tissue sample processing was performed in duplicate wells (loading 150 μl of homogenized sample and 150 μl of additional lysis buffer to each well) of the MagNA Pure LC, which is programmed to extract mRNA using oligo-dT selection technology into a final elution volume of 100 μl.” for “pathologists.”

[1] = 16 mg/kg orally in corn oil, 3 days, vs vehicle control, average of 3 animals
[2] = rat liver expression data vs Cholestasis Signature, maximum score of training treatments normalised to 100, dose and time not given
[3] = rat liver histopathology, training-set treatments
[4] = 386 mg/kg orally in corn oil, 3 days, vs vehicle control, average of 3 animals
[5] = 81 mg/kg orally in corn oil, 5 days, vs vehicle control, average of 3 animals

O=NN(CCCl)C(=O)NCCCl [CARMUSTINE, 1,3-bis(2-chloroethyl)-1-nitrosourea]
Fold change in serum alkaline phosphatase (male Sprague-Dawley rats; [1]): 1.7 fold | Fold change in serum alkaline phosphatase and total bilirubin (male Sprague-Dawley rats; [1]): 8.1 fold | Fold change in serum total bilirubin (male Sprague-Dawley rats; [1]): 4.6 fold | Sequence Projection Score (SPS) (Cholestasis Signature; [2]): 69* | increased hepatocyte enlargement and increased eosinophilic granular cytoplasm (livers of rats; [3]): mild to severe | nuclear/cytoplasmic condensation (apoptosis) and/or necrosis in liver (livers of rats; [3]): mild to moderate | bile duct hyperplasia (livers of rats; [3]): moderate

c1ccc2c(c1)Nc1ccccc1S2 [PHENOTHIAZINE, 2,3:5,6-dibenzo-1,4-thiazine]
Fold change in serum alkaline phosphatase (male Sprague-Dawley rats; [4]): −1.1 fold | Fold change in serum alkaline phosphatase and total bilirubin (male Sprague-Dawley rats; [4]): 3.4 fold | Fold change in serum total bilirubin (male Sprague-Dawley rats; [4]): 3.7 fold | Sequence Projection Score (SPS) (Cholestasis Signature; [2]): 49* | steatosis (livers of rats; [3]): moderate to very severe

Nc1ccc(Cc2ccc(N)cc2)cc1 [4,4′-DIAMINODIPHENYLMETHANE, 4,4′-diaminodiphenylmethane]
Fold change in serum alkaline phosphatase (male Sprague-Dawley rats; [5]): 1.6 fold | Fold change in serum alkaline phosphatase and total bilirubin (male Sprague-Dawley rats; [5]): 7.7 fold | Fold change in serum total bilirubin (male Sprague-Dawley rats; [5]): 4.9 fold | Sequence Projection Score (SPS) (Cholestasis Signature; [2]): 77** | bile duct hyperplasia (livers of rats; [3]): moderate

Cc1ccc(C)c(OCCCC(C)(C)C(=O)O)c1 [GEMFIBROZIL, 5-(2,5-dimethylphenoxy)-2,2-dimethylpentanoic acid]
raised serum levels of ALP and TBI compared with vehicle-treated control animals (male Sprague-Dawley rats; in vivo, po): at least 2 fold | Fold change in serum alkaline phosphatase (male Sprague-Dawley rats; in vivo, po, 700 mg/kg): 2.1 fold | Sequence Projection Score (SPS) (Cholestasis Signature; rat, in vivo): 28* | increased hepatocyte enlargement and increased eosinophilic granular cytoplasm (livers of rats; rat, in vivo): mild to severe | nuclear/cytoplasmic condensation (apoptosis) and/or necrosis in liver (livers of rats; rat, in vivo): mild to moderate
